ChEMBL document CHEMBL1671786, “Probes for narcotic receptor mediated phenomena. 41. Unusual inverse μ-agonists and potent μ-opioid antagonists by modification of the N-substituent in enantiomeric 5-(3-hydroxyphenyl)morphans” (J Med Chem, 2011)

What was measured:
[1] = biological target: Delta-type opioid receptor (Homo sapiens, UniProt P41143); assay: Displacement of [125I]IOXY from human recombinant delta opioid receptor expressed in CHO cells; type: cell-based
[2] = biological target: Kappa-type opioid receptor (Homo sapiens, UniProt P41145); assay: Displacement of [125I]IOXY from human recombinant kappa opioid receptor expressed in CHO cells; type: cell-based
Chain of Kappa-type opioid receptor (P41145 whole entry): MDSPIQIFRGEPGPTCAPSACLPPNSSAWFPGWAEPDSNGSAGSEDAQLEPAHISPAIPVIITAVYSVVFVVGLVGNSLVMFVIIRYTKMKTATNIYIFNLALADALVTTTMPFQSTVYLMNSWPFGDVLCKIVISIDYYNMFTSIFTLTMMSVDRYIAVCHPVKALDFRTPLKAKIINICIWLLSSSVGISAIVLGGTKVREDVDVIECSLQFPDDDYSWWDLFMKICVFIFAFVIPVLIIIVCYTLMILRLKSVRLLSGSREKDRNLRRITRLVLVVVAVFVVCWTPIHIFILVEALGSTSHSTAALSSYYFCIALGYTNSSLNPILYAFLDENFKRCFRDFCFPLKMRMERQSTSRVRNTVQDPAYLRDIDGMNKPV

Mu-type opioid receptor [3] = biological target: T1, Mu-type opioid receptor (Homo sapiens, UniProt P35372)
T1 sequence (P35372 whole entry): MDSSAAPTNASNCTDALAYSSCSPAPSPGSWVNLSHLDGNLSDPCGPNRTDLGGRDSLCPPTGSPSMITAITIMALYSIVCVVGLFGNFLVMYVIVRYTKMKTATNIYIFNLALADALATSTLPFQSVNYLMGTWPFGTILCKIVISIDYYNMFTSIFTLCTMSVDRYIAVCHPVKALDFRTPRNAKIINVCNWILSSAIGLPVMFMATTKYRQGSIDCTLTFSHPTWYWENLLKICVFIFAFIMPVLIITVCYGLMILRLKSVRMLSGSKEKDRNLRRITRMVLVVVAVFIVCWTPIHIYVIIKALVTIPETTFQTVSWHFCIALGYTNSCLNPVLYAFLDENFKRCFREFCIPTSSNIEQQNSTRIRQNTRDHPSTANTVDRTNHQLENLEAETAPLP
Description: Inverse agonist activity at mu opioid receptor by [35S]GTPgammaS binding assay

Mu-type opioid receptor [4] = biological target: T1, Mu-type opioid receptor; assay: Displacement of [125I]IOXY from human recombinant mu opioid receptor expressed in CHO cells; type: cell-based
Mu-type opioid receptor [5] = biological target: T1, Mu-type opioid receptor; assay: Binding affinity to mu opioid receptor

Chain of Delta-type opioid receptor (P41143 whole entry): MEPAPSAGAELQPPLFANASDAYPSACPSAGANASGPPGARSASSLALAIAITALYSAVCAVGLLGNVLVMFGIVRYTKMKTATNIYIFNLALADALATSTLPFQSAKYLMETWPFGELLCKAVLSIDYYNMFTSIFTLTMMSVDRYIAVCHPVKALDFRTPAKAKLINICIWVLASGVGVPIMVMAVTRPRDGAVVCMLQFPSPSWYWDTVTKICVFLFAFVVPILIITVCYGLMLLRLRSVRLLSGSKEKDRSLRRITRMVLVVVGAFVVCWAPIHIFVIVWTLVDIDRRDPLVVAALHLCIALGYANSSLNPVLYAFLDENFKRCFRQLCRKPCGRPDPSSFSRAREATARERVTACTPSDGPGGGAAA

Row | Compound | Ki [1] | Ki [2] | Ke (Mu-type opioid receptor [3]) | Ki (Mu-type opioid receptor [4]) | Ki (Mu-type opioid receptor [5])
1 | Oc1cccc([C@@]23CCC[C@@H](C2)N(C[C@@H]2C[C@@H]2c2ccccc2)CC3)c1 | 196 nM | 322 nM | 8.2 nM | 11 nM | 
2 | C[C@H]1CN(CC2CC2c2ccccc2)CC[C@@]1(C)c1cccc(O)c1 (some centres undefined) |  |  |  |  | 1.75 nM
3 | Oc1cccc([C@]23CCC[C@H](C2)N(C/C=C\c2ccccc2)CC3)c1 (single isomer, unassigned) | 454 nM | 123 nM | 3.1 nM | 26 nM | 
4 | Oc1cccc([C@]23CCC[C@H](C2)N(C[C@H]2C[C@@H]2c2ccccc2)CC3)c1 | 183 nM | 323 nM | 2.2 nM | 16 nM | 
5 | Oc1cccc(C23CCCC(C2)N(C/C=C/c2ccccc2)CC3)c1 (single isomer, unassigned; (+)) [listing 1 of 2 here] |  |  | 0.58 nM |  | 
6 | Oc1cccc(C23CCCC(C2)N(C/C=C/c2ccccc2)CC3)c1 (single isomer, unassigned; (+)) [listing 2 of 2 here] | 138 nM | 125 nM |  | 2 nM | 
7 | Oc1cccc([C@]23CCC[C@H](C2)N(C[C@H]2C[C@H]2c2ccccc2)CC3)c1 | 547 nM | 174 nM | 18 nM | 76 nM | 
8 | Oc1cccc(C23CCCC(C2)N(C/C=C/c2ccccc2)CC3)c1 (single isomer, unassigned; (-)) [listing 1 of 2 here] |  |  | 6.6 nM |  | 
9 | Oc1cccc(C23CCCC(C2)N(C/C=C/c2ccccc2)CC3)c1 (single isomer, unassigned; (-)) [listing 2 of 2 here] | 152 nM | 225 nM |  | 6 nM | 
10 | Oc1cccc([C@@]23CCC[C@@H](C2)N(C[C@H]2C[C@H]2c2ccccc2)CC3)c1 | 1980 nM | 475 nM | 33 nM | 459 nM | 
11 | Oc1cccc([C@@]23CCC[C@@H](C2)N(C[C@@H]2C[C@H]2c2ccccc2)CC3)c1 | 200 nM | 210 nM | 0.31 nM | 4 nM | 
12 | Oc1cccc([C@]23CCC[C@H](C2)N(C[C@@H]2C[C@@H]2c2ccccc2)CC3)c1 | 610 nM | 153 nM | 8.6 nM | 265 nM | 
13 | Oc1cccc([C@]23CCC[C@H](C2)N(C[C@@H]2C[C@H]2c2ccccc2)CC3)c1 | 800 nM | 390 nM | 9.4 nM | 47 nM | 
14 | Oc1cccc([C@@]23CCC[C@@H](C2)N(C/C=C\c2ccccc2)CC3)c1 (single isomer, unassigned) | 359 nM | 367 nM | 7.7 nM | 14 nM | 
15 | Oc1cccc([C@@]23CCC[C@@H](C2)N(C[C@H]2C[C@@H]2c2ccccc2)CC3)c1 | 165 nM | 72 nM | 0.17 nM | 3 nM | 
